Measured values: the supplement of paper PMC11451515

System: NOMO1
Assay: cell viability relative to DMSO control; higher = less cytotoxic
Conditions: 48 h
Procedure, shortened: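 Library compounds in DMSO were pin-dosed into 1536-well plates (5 μl) holding NOMO1 or SEM (500 cells/well) or P12-Ichikawa (1000 cells/well) leukemia cells, across an 11-point threefold series of 47 μM to 0.79 nM. Each cell line had been adapted for at least four passages in each medium. CellTiter-Glo One luminescence was read after 48 h at 37°C. Viability is the per-plate percentage relative to DMSO wells, with cell-free wells as background.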

[1] = HPLM + 10% dialyzed FBS, 0.000781 µM
[2] = HPLM + 10% dialyzed FBS, 0.00234 µM
[3] = HPLM + 10% dialyzed FBS, 0.00702 µM
[4] = HPLM + 10% dialyzed FBS, 0.0211 µM
[5] = HPLM + 10% dialyzed FBS, 0.0632 µM
[6] = HPLM + 10% dialyzed FBS, 0.19 µM
[7] = HPLM + 10% dialyzed FBS, 0.569 µM
[8] = HPLM + 10% dialyzed FBS, 1.71 µM
[9] = HPLM + 10% dialyzed FBS, 5.12 µM
[10] = HPLM + 10% dialyzed FBS, 15.4 µM
[11] = HPLM + 10% dialyzed FBS, 46.1 µM
[12] = RPMI 5 mM glucose + 10% FBS, 0.000781 µM
[13] = RPMI 5 mM glucose + 10% FBS, 0.00234 µM
[14] = RPMI 5 mM glucose + 10% FBS, 0.00702 µM
[15] = RPMI 5 mM glucose + 10% FBS, 0.0211 µM
[16] = RPMI 5 mM glucose + 10% FBS, 0.0632 µM
[17] = RPMI 5 mM glucose + 10% FBS, 0.19 µM
[18] = RPMI 5 mM glucose + 10% FBS, 0.569 µM
[19] = RPMI 5 mM glucose + 10% FBS, 1.71 µM
[20] = RPMI 5 mM glucose + 10% FBS, 5.12 µM
[21] = RPMI 5 mM glucose + 10% FBS, 15.4 µM
[22] = RPMI 5 mM glucose + 10% FBS, 46.1 µM
[23] = RPMI 5 mM glucose + 10% dialyzed FBS, 0.000781 µM
[24] = RPMI 5 mM glucose + 10% dialyzed FBS, 0.00234 µM
[25] = RPMI 5 mM glucose + 10% dialyzed FBS, 0.00702 µM
[26] = RPMI 5 mM glucose + 10% dialyzed FBS, 0.0211 µM
[27] = RPMI 5 mM glucose + 10% dialyzed FBS, 0.0632 µM
[28] = RPMI 5 mM glucose + 10% dialyzed FBS, 0.19 µM
[29] = RPMI 5 mM glucose + 10% dialyzed FBS, 0.569 µM
[30] = RPMI 5 mM glucose + 10% dialyzed FBS, 1.71 µM
[31] = RPMI 5 mM glucose + 10% dialyzed FBS, 5.12 µM
[32] = RPMI 5 mM glucose + 10% dialyzed FBS, 15.4 µM
[33] = RPMI 5 mM glucose + 10% dialyzed FBS, 46.1 µM

Compound	cell viability [1] [%]	cell viability [2] [%]	cell viability [3] [%]	cell viability [4] [%]	cell viability [5] [%]	cell viability [6] [%]	cell viability [7] [%]	cell viability [8] [%]	cell viability [9] [%]	cell viability [10] [%]	cell viability [11] [%]	cell viability [12] [%]	cell viability [13] [%]	cell viability [14] [%]	cell viability [15] [%]	cell viability [16] [%]	cell viability [17] [%]	cell viability [18] [%]	cell viability [19] [%]	cell viability [20] [%]	cell viability [21] [%]	cell viability [22] [%]	cell viability [23] [%]	cell viability [24] [%]	cell viability [25] [%]	cell viability [26] [%]	cell viability [27] [%]	cell viability [28] [%]	cell viability [29] [%]	cell viability [30] [%]	cell viability [31] [%]	cell viability [32] [%]	cell viability [33] [%]
COc1ccc(-c2nc(N3CCOCC3)c3sc(CN(C)c4ncc(C(=O)NO)cn4)cc3n2)cn1	109	132	86.2	62.8	12.6	8.22	7.83	8.13	7.89	7.72	6.31	110	112	100	65.4	14.2	8.1	8.11	8.29	7.05	7.28	6.26	117	132	104	73.7	22.8	7.51	7.58	7.17	6.72	6.98	6.02
CC(C)(C)c1[nH]cnc1/C=c1\[nH]c(=O)/c(=C/c2ccccc2)[nH]c1=O	101	76.7	31	46	52.7	37.5	42.1	32.5	20.3	22.1	5.6	128	109	24.3	24.5	28.9	23.9	24.9	17.4	18.4	14.6	6.53	103	105	24.9	26.2	29.5	27.8	30.6	20.8	23.2	16.5	3.92
Cc1ccc([S+](=O)([O-])N[C@@H](Cc2ccccc2)C(=O)CCl)cc1	90.2	100	119	119	87.3	112	99.1	107	106	101	47.6	91.8	89.4	96	96.9	97.9	91.4	90.3	81	95.1	90.7	71.1	88.8	99.6	94.6	94.6	100	85.2	99.4	108	97.7	85.1	73.6
O=C(Nc1cc2cc[nH]c2cn1)c1ccccc1	97.5	116	94.4	122	108	102	123	103	21	4.39	0.639	95.6	101	97.2	110	100	108	99.4	88.4	54.6	18.9	2.79	96.6	104	102	98.5	103	105	105	94	59.1	45.9	7.31
COc1ccc(C2CNC(=O)C2)cc1OC1CCCC1 (centres undefined)	78.4	105	91.4	97.7	122	105	105	112	101	99.6	106	85.8	92.4	92	103	109	95.1	92.5	100	92.4	91.8	107	92.1	94.5	93.8	95.2	102	96.7	104	94.7	104	98.7	94.9
CCC(C)(C)c1ccc(CC(C)CN2C[C@@H](C)O[C@@H](C)C2)cc1 (some centres undefined)	87.4	91.8	87.9	82	93.3	84.8	97	80.9	93.6	87.1	87.9	71.5	74.7	73.5	77.9	77.5	76.5	75.8	82.3	77.9	80.7	77.5	69.8	87.9	78.8	77	83.4	82	90.2	84	85.2	86.2	88
CC(C)NC[C@@H](C(=O)N1CCN(c2ncnc3c2[C@H](C)C[C@H]3O)CC1)c1ccc(Cl)cc1	115	115	119	117	109	103	109	110	79	51.4	18.6	109	121	109	100	111	109	107	105	102	73.8	47.8	124	89.2	115	100	103	100	108	87.8	81.6	57.6	43.1
COc1cc2ncnc(Nc3ccc(F)c(Cl)c3)c2cc1NC(=O)/C=C/CN1CCCCC1	92.2	105	114	102	108	118	81.9	81.8	72.1	65.6	41.5	86.4	93.7	91.1	86.3	98.4	84.9	89.6	88.4	89.1	91.7	75.5	95.7	97.7	93.6	85.4	91.3	96.6	85.1	95.2	78.3	65.6	72.9
